PMC10874388, “Cyclic peptides discriminate BCL-2 and its clinical mutants from BCL-XL by engaging a single-residue discrepancy” (Nature Communications, 2024)
Values joined by “and” are separate entries in the source; they are usually repeats but may differ in a detail not shown here. Equal values may be shown once.

What was measured:
[1] = test system: A549 cells overexpressing BCL-2 G101V; assay: Cell viability assay, A549 stably overexpressing BCL-2 G101V; assay type: cell-based; details: for luminescence reading, everage / inhibition rate / luminescence reading (raw, replicate wells): BCL2/G101V A549; for luminescence reading, everage: mean of 6 wells
Description: (§1) Cell viability was measured using CellTiter-Glo® 2.0 Reagent (Promega, G9242). […] After different inhibitors were added into serum-free medium and cultured for 4 h (RS4:11 for 6 h), FBS were supplemented to 10% and then incubated totally for 24 h or 48 h. Finally, the IC50 values were calculated based on measurements using a microplate reader (Thermo, Varioskan LUX). Statistical analysis was performed using software GraphPad Prism 7.0.
Lentivirus packaging vectors pMDLg/pRRE, pRSV-Rev, and pVSV-G were obtained from Prof. Han Jiahuai’s lab (Xiamen University). Lentiviruses were produced using 3rd-generation lentivirus packaging plasmids transiently transfected into HEK293T cells with the constructs of interest using 0.25 M CaCl2. Media was changed after 16 h, and supernatants containing infectious virus particles were harvested 24 h later. A second viral harvest was made following a further 24 h incubation with fresh media. Virus containing supernatant was filtered through a […], and stored at 4 °C or −80 °C until being used. Typically, A549 cells were seeded into 10 cm cell culture dishes at 4 ~ 8 × 10^5 cells/cm^2. An equivalent volume of virus containing culture medium was added along with polybrene (Sigma) to a final concentration of 10 µg/mL. Cells were incubated at 37 °C for 20 h, before they were washed and resuspended in fresh culture media. The expression level of BCL-2 was measured by qPCR and western blot methods.

A549 cells (control) = assay: Cell viability assay (CellTiter-Glo), normal A549 (control); assay type: cell-based; details: for luminescence reading, everage: mean of 6 wells
Description: The cell lines Jurkat (TIB-152), El4 (TIB-39), Daudi (ccl-213), RS4:11 (crl-1873), A549 (ccl-185), HepG2 (hb-8065) and PANC-1 (crl-1469) were purchased from ATCC (American Type Culture Collection), and MGC-803 (C6582) was purchased from Beyotime (https://www.beyotime.com/product/C6582.htm). […] Daudi and RS4:11 cells were cultured in RPMI-1640 medium (HyClone, SH30809.01) and 10% FBS (Gibco, 10099-141), whereas HepG2, MGC-803 and PANC-1 cells were cultured in MDEM (HyClone, SH30243.01). Cells were maintained at 37 °C under a humidified, 5% (v/v) CO2-containing atmosphere.
as §1

[2] = control A549, ABT-199 0.390625 uM
[3] = control A549, ABT-199 0.78125 uM
[4] = control A549, ABT-199 1.5625 uM

## CC1(C)CCC(CN2CCN(c3ccc(C(=O)NS(=O)(=O)c4ccc(NCC5CCOCC5)c([N+](=O)[O-])c4)c(Oc4cnc5[nH]ccc5c4)c3)CC2)=C(c2ccc(Cl)cc2)C1 [venetoclax]
[1]; ABT-199 6.25 uM
  luminescence reading, everage: 281150
[1]; ABT-199 6.25 uM, replicate wells
  inhibition rate: 51% and 48%
[1]; ABT-199 12.5 uM
  luminescence reading (raw, replicate wells): 184500 and 179700 and 182600 and 196200 and 190700 and 205800
  luminescence reading, everage: 189917
[1]; ABT-199 12.5 uM, replicate wells
  inhibition rate: 68% and 69% and 66%
[1]; ABT-199 25 uM
  luminescence reading (raw, replicate wells): 98970 and 101200 and 102400 and 107200 and 99210 and 118800
  luminescence reading, everage: 104630
[1]; ABT-199 25 uM, replicate wells
  inhibition rate: 83% and 82% and 80%
[1]; ABT-199 50 uM
  luminescence reading (raw, replicate wells): 50230 and 51420 and 49850 and 51590 and 53640 and 55790
  luminescence reading, everage: 52087
[1]; ABT-199 50 uM, replicate wells
  inhibition rate: 91%
[1]; ABT-199 100 uM
  luminescence reading (raw, replicate wells): 16880 and 17260 and 16270 and 16910 and 17660 and 17950
  luminescence reading, everage: 17155
[1]; ABT-199 200 uM
  luminescence reading (raw, replicate wells): 5500 and 6087 and 6493 and 5130 and 5793 and 6329
  luminescence reading, everage: 5889
[1]; Homo sapiens, A549, BCL2/G101V A549, ABT-199 1.5625 uM, replicate wells, read-out: inhibition rate
  inhibition at 1.5625 µM: 35%
[1]; Homo sapiens, A549, BCL2/G101V A549, ABT-199 3.125 uM, replicate wells, read-out: inhibition rate
  inhibition at 3.125 µM: 55%
[1]; Homo sapiens, A549, BCL2/G101V A549, ABT-199 6.25 uM, replicate wells, read-out: inhibition rate
  inhibition at 6.25 µM: 57%
[1]; Homo sapiens, A549, BCL2/G101V A549, ABT-199 12.5 uM, replicate wells, read-out: inhibition rate
  inhibition at 12.5 µM: 70%
[1]; Homo sapiens, A549, BCL2/G101V A549, ABT-199 25 uM, replicate wells, read-out: inhibition rate
  inhibition at 25 µM: 84%
[1]; Homo sapiens, A549, BCL2/G101V A549, ABT-199 50 uM, replicate wells, read-out: inhibition rate
  inhibition at 50 µM: 92%
[1]; Homo sapiens, A549, BCL2/G101V A549, ABT-199 100 uM, replicate wells, read-out: inhibition rate
  inhibition at 100 µM: 97%
[1]; Homo sapiens, A549, BCL2/G101V A549, ABT-199 200 uM, replicate wells, read-out: inhibition rate
  inhibition at 200 µM: 99%
[1]; Homo sapiens, A549, 48 h, CellTiter-Glo, n = 6
  IC50: 4.1 ± 0.3 µM
A549 cells (control); A549, ABT199 0.3125 uM
  average (raw viability reading): 403300
A549 cells (control); A549, ABT199 0.3125 uM, fraction, replicates
  inhibition rate: 0.1384 and 0.2199 and 0.2562 and 0.2483 and 0.2515 and 0.3247
A549 cells (control); A549, ABT199 0.3125 uM, replicates
  raw viability reading: 394600 and 398800 and 397100 and 358300 and 457100 and 413900
A549 cells (control); A549, ABT199 0.625 uM
  average (raw viability reading): 437733
A549 cells (control); A549, ABT199 0.625 uM, fraction, replicates
  inhibition rate: 0.1102 and 0.1614 and 0.1995 and 0.1861 and 0.1882 and 0.2042
A549 cells (control); A549, ABT199 0.625 uM, replicates
  raw viability reading: 424700 and 431800 and 430700 and 422200 and 472100 and 444900
A549 cells (control); A549, ABT199 1.25 uM
  average (raw viability reading): 415750
A549 cells (control); A549, ABT199 1.25 uM, fraction, replicates
  inhibition rate: 0.1437 and 0.2152 and 0.2434 and 0.2293 and 0.2263 and 0.2404
A549 cells (control); A549, ABT199 1.25 uM, replicates
  raw viability reading: 401400 and 408900 and 410500 and 403000 and 454300 and 416400
A549 cells (control); A549, ABT199 2.5 uM
  average (raw viability reading): 279550
A549 cells (control); A549, ABT199 2.5 uM, fraction, replicates
  inhibition rate: 0.4238 and 0.4647 and 0.4862 and 0.4847 and 0.4854 and 0.4937
A549 cells (control); A549, ABT199 2.5 uM, replicates
  raw viability reading: 272600 and 273400 and 273000 and 268600 and 305700 and 284000
A549 cells (control); A549, ABT199 5 uM
  average (raw viability reading): 231967
A549 cells (control); A549, ABT199 5 uM, fraction, replicates
  inhibition rate: 0.5341 and 0.5546 and 0.5723 and 0.5614 and 0.5684 and 0.5859
A549 cells (control); A549, ABT199 5 uM, replicates
  raw viability reading: 226900 and 232700 and 229000 and 219700 and 247200 and 236300
A549 cells (control); A549, ABT199 10 uM
  average (raw viability reading): 181100
A549 cells (control); A549, ABT199 10 uM, fraction, replicates
  inhibition rate: 0.6325 and 0.6605 and 0.666 and 0.6628 and 0.6649 and 0.6653
A549 cells (control); A549, ABT199 10 uM, replicates
  raw viability reading: 177200 and 178900 and 177800 and 177600 and 195000 and 180100
A549 cells (control); A549, ABT199 20 uM
  average (raw viability reading): 174683
A549 cells (control); A549, ABT199 20 uM, fraction, replicates
  inhibition rate: 0.6679 and 0.6686 and 0.6762 and 0.6713 and 0.6664 and 0.6741
A549 cells (control); A549, ABT199 20 uM, replicates
  raw viability reading: 171800 and 174400 and 177000 and 172900 and 176200 and 175800
A549 cells (control); Homo sapiens, A549, control A549, ABT-199 0.390625 uM, replicate wells, read-out: inhibition rate
  inhibition at 0.390625 µM: 26%
A549 cells (control); Homo sapiens, A549, control A549, ABT-199 0.78125 uM, replicate wells, read-out: inhibition rate
  inhibition at 0.78125 µM: 33%
A549 cells (control); Homo sapiens, A549, control A549, ABT-199 1.5625 uM, replicate wells, read-out: inhibition rate
  inhibition at 1.5625 µM: 61%
A549 cells (control); Homo sapiens, A549, control A549, ABT-199 3.125 uM, replicate wells, read-out: inhibition rate
  inhibition at 3.125 µM: 75%
A549 cells (control); Homo sapiens, A549, control A549, ABT-199 6.25 uM, replicate wells, read-out: inhibition rate
  inhibition at 6.25 µM: 76%
A549 cells (control); Homo sapiens, A549, control A549, ABT-199 12.5 uM, replicate wells, read-out: inhibition rate
  inhibition at 12.5 µM: 81%
A549 cells (control); Homo sapiens, A549, control A549, ABT-199 25 uM, replicate wells, read-out: inhibition rate
  inhibition at 25 µM: 87%
A549 cells (control); Homo sapiens, A549, control A549, ABT-199 50 uM, replicate wells, read-out: inhibition rate
  inhibition at 50 µM: 93%
A549 cells (control); Homo sapiens, A549, control A549, ABT-199 100 uM, replicate wells, read-out: inhibition rate
  inhibition at 100 µM: 98%
A549 cells (control); Homo sapiens, A549, control A549, ABT-199 200 uM, replicate wells, read-out: inhibition rate
  inhibition at 200 µM: 99%
A549 cells (control); Homo sapiens, A549, 48 h, CellTiter-Glo, n = 6, read-out: IC50 A549 control (original cells)
  IC50: 1.1 ± 0.2 µM
A549 cells (control); [2]
  luminescence reading (raw, replicate wells): 589100 and 474500 and 578500 and 498700 and 513300 and 511200
  luminescence reading, everage: 527550
A549 cells (control); control A549, ABT-199 0.390625 uM, replicate wells
  inhibition rate: 40% and 27% and 37% and 35% and 36%
A549 cells (control); [3]
  luminescence reading (raw, replicate wells): 528700 and 466700 and 517300 and 470700 and 495500 and 475500
  luminescence reading, everage: 492400
A549 cells (control); control A549, ABT-199 0.78125 uM, replicate wells
  inhibition rate: 41% and 35% and 38% and 40%
A549 cells (control); [4]
  luminescence reading (raw, replicate wells): 312000 and 314300 and 298800 and 314500 and 309000 and 290800
  luminescence reading, everage: 306567
A549 cells (control); control A549, ABT-199 1.5625 uM, replicate wells
  inhibition rate: 60% and 62% and 63%
A549 cells (control); control A549, ABT-199 3.125 uM
  luminescence reading (raw, replicate wells): 198800 and 204700 and 191700 and 191900 and 189900 and 188800
  luminescence reading, everage: 194300
A549 cells (control); control A549, ABT-199 3.125 uM, replicate wells
  inhibition rate: 74%
A549 cells (control); control A549, ABT-199 6.25 uM
  luminescence reading (raw, replicate wells): 186800 and 193000 and 186700 and 177700 and 179700 and 186500
  luminescence reading, everage: 185067
A549 cells (control); control A549, ABT-199 6.25 uM, replicate wells
  inhibition rate: 78% and 77%
A549 cells (control); control A549, ABT-199 12.5 uM
  luminescence reading (raw, replicate wells): 154400 and 153500 and 158000 and 148200 and 149400 and 149600
  luminescence reading, everage: 152183
A549 cells (control); control A549, ABT-199 12.5 uM, replicate wells
  inhibition rate: 80%
A549 cells (control); control A549, ABT-199 25 uM
  luminescence reading (raw, replicate wells): 102900 and 103500 and 106000 and 102100 and 105400 and 102800
  luminescence reading, everage: 103783
A549 cells (control); control A549, ABT-199 50 uM
  luminescence reading (raw, replicate wells): 55930 and 54730 and 51960 and 49990 and 56070 and 56150
  luminescence reading, everage: 54138
A549 cells (control); control A549, ABT-199 50 uM, replicate wells
  inhibition rate: 94%
A549 cells (control); control A549, ABT-199 100 uM
  luminescence reading (raw, replicate wells): 16550 and 16810 and 16440 and 16110 and 17860 and 16240
  luminescence reading, everage: 16668
A549 cells (control); control A549, ABT-199 200 uM
  luminescence reading (raw, replicate wells): 6435 and 6601 and 7137 and 6682 and 6762 and 7490
  luminescence reading, everage: 6851
